{
  "source": "patent US20130274127A1",
  "about": "“GENE EXPRESSION MARKERS FOR PREDICTION OF RESPONSE TO PHOSPHOINOSITIDE 3-KINASE INHIBITORS” (GENOMIC HEALTH, INC., priority 2012, published 2013)",
  "key": {"[1]": {"test_system": "NCI-60 tumor cell line collection", "test": "NCI-60 in vitro drug sensitivity testing, whole panel", "format": "cell-based, human", "conditions": "for GI50: Homo sapiens, all 60 NCI-60 cell lines", "source_text": "The NCI-60 tumor cell line collection is a panel of 60 diverse human cancer cell lines.\n(§1) Cell lines used in this study were obtained from the National Cancer Institute Developmental Therapeutics program (NCI DTP) and were maintained in RPMI 1640 media (Invitrogen, Grand Island, N.Y.) containing 10% Fetal Bovine Serum (ATCC, Manassas, Va.). Cell lines were used within six months of receipt from the NCI DTP, abrogating the need for reauthentication.\n(§2) 14, 2010 and Aug. 9, 2010."}, "[2]": {"test_system": "PC-3", "test": "NCI-60 in vitro drug sensitivity testing (SRB)", "format": "cell-based", "conditions": "Homo sapiens, PC-3, read-out: GDC-0941 GI50", "source_text": "as §1, §2"}, "[3]": {"test_system": "MDA-MB-468", "test": "NCI-60 in vitro drug sensitivity testing (SRB)", "format": "cell-based", "conditions": "Homo sapiens, MDA-MB-468, read-out: GDC-0941 GI50", "source_text": "as §1, §2"}, "[4]": {"test_system": "HS 578T", "test": "NCI-60 in vitro drug sensitivity testing (SRB)", "format": "cell-based", "conditions": "Homo sapiens, read-out: GDC-0941 GI50", "source_text": "as §1, §2"}, "[5]": {"test_system": "CAKI-1", "test": "NCI-60 in vitro drug sensitivity testing (SRB)", "format": "cell-based", "conditions": "Homo sapiens, CAKI-1, read-out: GDC-0941 GI50", "source_text": "as §1, §2"}, "[6]": {"test_system": "HCT-15", "test": "NCI-60 in vitro drug sensitivity testing (SRB)", "format": "cell-based", "conditions": "Homo sapiens, HCT-15, read-out: GDC-0941 GI50", "source_text": "as §1, §2"}, "[7]": {"test_system": "OVCAR-3", "test": "NCI-60 in vitro drug sensitivity testing (SRB)", "format": "cell-based", "conditions": "Homo sapiens, OVCAR-3, read-out: GDC-0941 GI50", "source_text": "as §1, §2"}, "[8]": {"test_system": "COLO 205", "test": "NCI-60 in vitro drug sensitivity testing (SRB)", "format": "cell-based", "conditions": "Homo sapiens, COLO 205, read-out: GDC-0941 GI50", "source_text": "as §1, §2"}, "[9]": {"test_system": "SK-MEL-2", "test": "NCI-60 in vitro drug sensitivity testing (SRB)", "format": "cell-based", "conditions": "Homo sapiens, SK-MEL-2, read-out: GDC-0941 GI50", "source_text": "as §1, §2"}, "[10]": {"test_system": "IGROV1", "test": "NCI-60 in vitro drug sensitivity testing (SRB)", "format": "cell-based", "conditions": "Homo sapiens, IGROV-1, read-out: GDC-0941 GI50", "source_text": "as §1, §2"}, "[11]": {"test_system": "NCI-H226", "test": "NCI-60 in vitro drug sensitivity testing (SRB)", "format": "cell-based", "conditions": "Homo sapiens, NCI-H226, read-out: GDC-0941 GI50", "source_text": "as §1, §2"}, "[12]": {"test_system": "SK-MEL-5", "test": "NCI-60 in vitro drug sensitivity testing (SRB)", "format": "cell-based", "conditions": "Homo sapiens, SK-MEL-5, read-out: GDC-0941 GI50", "source_text": "as §1, §2"}, "[13]": {"test_system": "NCI-H322M", "test": "NCI-60 in vitro drug sensitivity testing (SRB)", "format": "cell-based", "conditions": "Homo sapiens, read-out: GDC-0941 GI50", "source_text": "as §1, §2"}, "[14]": {"test_system": "MALME-3M", "test": "NCI-60 in vitro drug sensitivity testing (SRB)", "format": "cell-based", "conditions": "Homo sapiens, read-out: GDC-0941 GI50", "source_text": "as §1, §2"}, "[15]": {"test_system": "HL-60(TB)", "test": "NCI-60 in vitro drug sensitivity testing (SRB)", "format": "cell-based", "conditions": "Homo sapiens, read-out: GDC-0941 GI50", "source_text": "as §1, §2"}, "[16]": {"test_system": "K-562", "test": "NCI-60 in vitro drug sensitivity testing (SRB)", "format": "cell-based", "conditions": "Homo sapiens, K562, read-out: GDC-0941 GI50", "source_text": "as §1, §2"}, "[17]": {"test_system": "KM12", "test": "NCI-60 in vitro drug sensitivity testing (SRB)", "format": "cell-based", "conditions": "Homo sapiens, KM12, read-out: GDC-0941 GI50", "source_text": "as §1, §2"}, "[18]": {"test_system": "HOP-92", "test": "NCI-60 in vitro drug sensitivity testing (SRB)", "format": "cell-based", "conditions": "Homo sapiens, HOP-92, read-out: GDC-0941 GI50", "source_text": "as §1, §2"}, "[19]": {"test_system": "NCI/ADR-RES", "test": "NCI-60 in vitro drug sensitivity testing (SRB)", "format": "cell-based", "conditions": "Homo sapiens, read-out: GDC-0941 GI50", "source_text": "as §1, §2"}, "[20]": {"test_system": "HCT-116", "test": "NCI-60 in vitro drug sensitivity testing (SRB)", "format": "cell-based", "conditions": "Homo sapiens, HCT-116, read-out: GDC-0941 GI50", "source_text": "as §1, §2"}, "[21]": {"test_system": "CCRF-CEM", "test": "NCI-60 in vitro drug sensitivity testing (SRB)", "format": "cell-based", "conditions": "Homo sapiens, read-out: GDC-0941 GI50", "source_text": "as §1, §2"}, "[22]": {"test_system": "RXF 393", "test": "NCI-60 in vitro drug sensitivity testing (SRB)", "format": "cell-based", "conditions": "Homo sapiens, RXF 393, read-out: GDC-0941 GI50", "source_text": "as §1, §2"}, "[23]": {"test_system": "MDA-MB-435", "test": "NCI-60 in vitro drug sensitivity testing (SRB)", "format": "cell-based", "conditions": "Homo sapiens, MDA-MB-435, read-out: GDC-0941 GI50", "source_text": "as §1, §2"}, "[24]": {"test_system": "U251", "test": "NCI-60 in vitro drug sensitivity testing (SRB)", "format": "cell-based", "conditions": "Homo sapiens, U-251, read-out: GDC-0941 GI50", "source_text": "as §1, §2"}, "[25]": {"test_system": "UO-31", "test": "NCI-60 in vitro drug sensitivity testing (SRB)", "format": "cell-based", "conditions": "Homo sapiens, UO-31, read-out: GDC-0941 GI50", "source_text": "as §1, §2"}, "[26]": {"test_system": "OVCAR-8", "test": "NCI-60 in vitro drug sensitivity testing (SRB)", "format": "cell-based", "conditions": "Homo sapiens, OVCAR-8, read-out: GDC-0941 GI50", "source_text": "as §1, §2"}, "[27]": {"test_system": "T-47D", "test": "NCI-60 in vitro drug sensitivity testing (SRB)", "format": "cell-based", "conditions": "Homo sapiens, T47D, read-out: GDC-0941 GI50", "source_text": "as §1, §2"}, "[28]": {"test_system": "SNB-19", "test": "NCI-60 in vitro drug sensitivity testing (SRB)", "format": "cell-based", "conditions": "Homo sapiens, SNB-19, read-out: GDC-0941 GI50", "source_text": "as §1, §2"}, "[29]": {"test_system": "A549/ATCC", "test": "NCI-60 in vitro drug sensitivity testing (SRB)", "format": "cell-based", "conditions": "Homo sapiens, read-out: GDC-0941 GI50", "source_text": "as §1, §2"}},
  "note": "Like-named read-outs stand apart in the source and are kept apart here.",
  "data": [
    {"smiles": "CS(=O)(=O)N1CCN(Cc2cc3nc(-c4cccc5[nH]ncc45)nc(N4CCOCC4)c3s2)CC1", "note": "[GDC-0941]", "values": [
      {"measurement": "GI50", "setting": "[1]; read-out: GI50 values, range over the panel", "result": "11 to 3800", "unit": "nM"},
      {"measurement": "GI50", "setting": "[1]; read-out: Mean GI50 for all cell lines", "result": 660, "unit": "nM"},
      {"measurement": "Anti-proliferative activity across the panel", "setting": "[1]; nine tumor types represented in the NCI-60 cell line panel", "result": "broad anti-proliferative activity"},
      {"measurement": "GI50", "setting": "[2]", "result": 138, "unit": "nM"},
      {"measurement": "GI50", "setting": "[3]", "result": 110, "unit": "nM"},
      {"measurement": "GI50", "setting": "[4]", "result": 71, "unit": "nM"},
      {"measurement": "GI50", "setting": "[5]", "result": 178, "unit": "nM"},
      {"measurement": "GI50", "setting": "[6]", "result": 209, "unit": "nM"},
      {"measurement": "GI50", "setting": "[7]", "result": 126, "unit": "nM"},
      {"measurement": "GI50", "setting": "[8]", "result": 269, "unit": "nM"},
      {"measurement": "GI50", "setting": "[9]", "result": 759, "unit": "nM"},
      {"measurement": "GI50", "setting": "[10]", "result": 26, "unit": "nM"},
      {"measurement": "GI50", "setting": "[11]", "result": 1230, "unit": "nM"},
      {"measurement": "GI50", "setting": "[12]", "result": 1290, "unit": "nM"},
      {"measurement": "GI50", "setting": "[13]", "result": 209, "unit": "nM"},
      {"measurement": "GI50", "setting": "[14]", "result": 138, "unit": "nM"},
      {"measurement": "GI50", "setting": "[15]", "result": 58, "unit": "nM"},
      {"measurement": "GI50", "setting": "[16]", "result": 3470, "unit": "nM"},
      {"measurement": "GI50", "setting": "[17]", "result": 708, "unit": "nM"},
      {"measurement": "GI50", "setting": "[18]", "result": 83, "unit": "nM"},
      {"measurement": "GI50", "setting": "[19]", "result": 2040, "unit": "nM"},
      {"measurement": "GI50", "setting": "[20]", "result": 692, "unit": "nM"},
      {"measurement": "GI50", "setting": "[21]", "result": 2340, "unit": "nM"},
      {"measurement": "GI50", "setting": "[22]", "result": 251, "unit": "nM"},
      {"measurement": "GI50", "setting": "[23]", "result": 204, "unit": "nM"},
      {"measurement": "GI50", "setting": "[24]", "result": 1050, "unit": "nM"},
      {"measurement": "GI50", "setting": "[25]", "result": 78, "unit": "nM"},
      {"measurement": "GI50", "setting": "[26]", "result": 646, "unit": "nM"},
      {"measurement": "GI50", "setting": "[27]", "result": 11, "unit": "nM"},
      {"measurement": "GI50", "setting": "[28]", "result": 1150, "unit": "nM"},
      {"measurement": "GI50", "setting": "[29]", "result": 251, "unit": "nM"}
    ]}
  ]
}
